Target: T1, adenosine deaminase (ADA) (Homo sapiens, UniProt P00813)
T1 construct: purchased Sigma
T1 sequence (P00813 1-363): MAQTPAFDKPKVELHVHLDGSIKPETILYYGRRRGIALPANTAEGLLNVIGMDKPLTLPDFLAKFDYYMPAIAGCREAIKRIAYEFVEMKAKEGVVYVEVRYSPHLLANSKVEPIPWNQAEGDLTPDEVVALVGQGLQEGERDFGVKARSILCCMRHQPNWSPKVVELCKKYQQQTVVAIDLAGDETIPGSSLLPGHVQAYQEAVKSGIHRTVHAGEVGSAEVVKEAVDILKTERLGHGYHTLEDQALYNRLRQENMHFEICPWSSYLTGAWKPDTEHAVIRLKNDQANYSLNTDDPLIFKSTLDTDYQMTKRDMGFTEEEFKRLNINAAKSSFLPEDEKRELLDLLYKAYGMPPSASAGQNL
Experiment: Cell viability with adenosine derivatives in presence or absence of ADA, normoxic conditions (Example 2)
Assay type: cell-based
Conditions: presence of ADA
Description: Three known ADA inhibitors were examined to evaluate the efficacies of adenosine derivatives: cladribine, pentostatin, and fludarabine phosphate. They have similar structures and molecular weights compared to adenosine, but different functional groups in the structures. Metabolic rate of cells were indirectly analyzed by cell viability in the presence or absence of adenosine derivatives and ADA in various doses. Cell viability with the drugs was evaluated under normoxic conditions.
Adenosine (Sigma-Aldrich), cladribine (Sigma, 2-Chloro-2′-deoxyadenosine), pentostatin (Tocris biosciences), and fludarabine phosphate (LGM Pharma) were used throughout this study.

Nc1ncnc2c1ncn2[C@@H]1O[C@H](CO)[C@@H](O)[C@H]1O [adenosine]
conversion by ADA / stability towards adenosine degrading enzymes: lost its activity in presence of ADA
